In patent publication US12157745B2, “Heterocyclic systems and pharmaceutical compositions thereof” (University of Sharjah, priority 2018, dated 2024):

Experiments:
Test in all cases: Full dose-response, survival of cancer cell line (SRB assay)
Type in all cases: cell-based
MCF7 = settings: Homo sapiens, breast cancer, 48 hours of drug treatment, average of three individual experiments
Text: (§1) Dulbecco's Modified Eagles Medium (DMEM), RPMI 1640 medium and propidium iodide (PI) were purchased from Sigma Aldrich (Darmstadt, Germany). For western blot, the antibodies; c-Myc, p^53, p^21, Bax, Bid, BclxL, GAPDH, caspase-3, caspase-9, p-ATM, p-ATR, p-Chk1, p-Chk2, p-P^53, and p-H2AX along with respective mouse/rabbit secondary antibodies were purchased from Cell Signaling Technology (Danvers, MA, USA). FITC Annexin V Apoptosis kit was purchased from BD Biosciences (New Jersey, USA). All other chemicals and solvents used were of standard analytical grade. The stock solutions of SIMR compounds were made in 100% DMSO and working solutions for treatments never exceeded >1% DMSO. The cell lines were gifted from Radiobiology and Experimental Radio Oncology lab, University Cancer Center, Hamburg University, Hamburg, Germany. F180 and HCT116 cells were cultured in DMEM media while MCF-7 and SKBR3 cells were cultured in RPMI along with 10% FBS and 5% CO2 in a humidified incubator at 37° C. The cells were grown on polystyrene T-75 (75 cm^2) culture flasks and all the experiments were performed at ˜70% cell confluency.
(§2) SRB assay was performed on DU-143 and MCF-7 cells in order to find out the sub-lethal dosage (IC50) of the synthesized compounds based on reported method with minor modifications. Briefly, 1×10^4 cells were seeded in a 96-well plate overnight and were treated with different concentrations of compounds and incubated further for 48 hours. The wells which were devoid of any treatment served as controls. After the treatment time, the plates were incubated with 50% trichloroacetic acid (TCA) at 4° C. for 1 hour. The cells were then washed, dried and exposed to 1% acetic acid for short period. Two hundred microliters of 10 mMtris base solution was then added with 10 min incubation after drying the plates and the OD was read at 492 nm by using a Multiskan™ GO (Thermo Scientific, USA) microplate Spectrophotometer.

SKBR3 = settings: Homo sapiens, SK-BR-3; breast cancer; 48 hours of drug treatment; average of three individual experiments
Text: as §1, §2

HCT116 = settings: Homo sapiens, HCT-116; colon cancer; 48 hours of drug treatment; average of three individual experiments
Text: as §1, §2

Row | Structure (SMILES) | IC50 (MCF7) [µM] | IC50 (SKBR3) [µM] | IC50 (HCT116) [µM]
1 | COc1ccc(OC)c(C2=CSC3=N[C@@H]4c5c(ccc6ccccc56)OC[C@@H]4C(C)(C)N23)c1 [Compound 1n] | 6.76 | 10.1 | 6.2
2 | CC1=C(c2ccc(Cl)c(Cl)c2)N2C(=N[C@H]3c4cc5c6c(c4OC[C@@H]3C2(C)C)CCCN6CCC5)S1 [Compound 1x] | 0.38 | 1.4 | 2.3
3 | CC1=C(c2ccc(Br)cc2)N2C(=N[C@@H]3c4c(ccc5ccccc45)OC[C@@H]3C2(C)C)S1 [Compound 1r] | 8.14 | 7.6 | 7.2
4 | CC(=O)Nc1ccc(C2=CSC3=N[C@@H]4c5c(ccc6ccccc56)OC[C@@H]4C(C)(C)N23)cc1 [Compound 1m] | 4.5 | 6.4 | 3.7
5 | COc1cccc2c1C(=O)c1c(O)c3c(c(O)c1C2=O)C[C@@](O)(C(=O)CO)C[C@@H]3O[C@H]1C[C@H](N)[C@H](O)[C@H](C)O1 [Doxorubicin, reference compound] | 0.058 | 0.25 | 0.096
6 | CC1=C(c2ccccc2)N2C(=N[C@@H]3c4c(ccc5ccccc45)OC[C@@H]3C2(C)C)S1 [Compound 1q] | 11.8 | 9.4 | 4.7
